Test results published in ChEMBL document CHEMBL3817784, “The role of transporter ectodomains in drug recognition and binding: phlorizin and the sodiumglucose cotransporter” (Medchemcomm, 2016).

Assays:
Homo sapiens [1] = species on record: Homo sapiens; assay: Binding affinity to SGLT1 D621W mutant (unknown origin) by tryptophan fluorescence quenching method
Homo sapiens [2] = species on record: Homo sapiens; assay: Binding affinity to SGLT1 R601W mutant (unknown origin) by tryptophan fluorescence quenching method
[3] = molecular target: T1, Sodium/glucose cotransporter 2 (Rattus norvegicus, UniProt P53792); assay: Binding affinity to SGLT2 in isolated rat renal cortex brush border membranes using maleimide-PEG800-NHS to couple compound to AFM cantilever tip
T1 sequence (P53792 whole entry): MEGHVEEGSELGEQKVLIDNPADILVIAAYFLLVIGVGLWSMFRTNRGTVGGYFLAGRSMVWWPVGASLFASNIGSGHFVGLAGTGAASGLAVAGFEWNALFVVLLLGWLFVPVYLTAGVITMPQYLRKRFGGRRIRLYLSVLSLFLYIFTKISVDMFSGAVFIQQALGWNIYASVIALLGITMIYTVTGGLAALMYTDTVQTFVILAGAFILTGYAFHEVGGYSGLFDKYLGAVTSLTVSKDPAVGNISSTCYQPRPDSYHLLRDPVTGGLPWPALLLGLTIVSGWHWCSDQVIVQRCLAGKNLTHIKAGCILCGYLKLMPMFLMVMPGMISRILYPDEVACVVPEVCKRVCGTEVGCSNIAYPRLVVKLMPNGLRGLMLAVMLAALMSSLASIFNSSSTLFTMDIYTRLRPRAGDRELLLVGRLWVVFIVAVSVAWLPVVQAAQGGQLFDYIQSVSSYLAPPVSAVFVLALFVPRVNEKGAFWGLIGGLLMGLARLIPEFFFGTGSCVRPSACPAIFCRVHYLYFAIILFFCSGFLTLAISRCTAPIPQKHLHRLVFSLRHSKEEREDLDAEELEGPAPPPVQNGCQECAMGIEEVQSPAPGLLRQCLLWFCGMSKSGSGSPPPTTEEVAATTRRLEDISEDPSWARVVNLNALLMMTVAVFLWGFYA

SMILES | Qmax (Homo sapiens [1]) [%] | Qmax (Homo sapiens [2]) [%] | Kd [3] [nM]
O=C(CCc1ccc(O)cc1)c1c(O)cc(O)cc1O[C@@H]1O[C@H](CO)[C@@H](O)[C@H](O)[C@H]1O | 80 | 67 | 
O=C(CCCCCS)Nc1cc(CCC(=O)c2c(O)cc(O)cc2O[C@@H]2O[C@H](CO)[C@@H](O)[C@H](O)[C@H]2O)ccc1O |  |  | 200
